Measured values published in paper PMC12472391, “Borylated Five-Membered Ring Iminosugars: Synthesis, Spectroscopic Analysis, and Biological Evaluation for Glycosidase Inhibition and Anticancer Properties for Application in Boron Neutron Capture Therapy (BNCT)—Part 1” (Pharmaceuticals, 2025).

Key:
[1] = system: MCF10A normal breast cells; test: Cancer screening, MTT growth inhibition; format: cell-based; conditions: 72-h exposure; for inhibition at 25 µM / GI50: Homo sapiens, MCF-10A; for inhibition at 25 µM: read-out: MCF10A Breast (Normal), Percentage (%) Cell Growth Inhibition in response to 25 µM of Drug; for GI50: dose response, read-out: MCF10A Breast (Normal), GI50 = Concentration (µM) that inhibits cell growth by 50%
Procedure: Two assays were run: the dose screen to ascertain cell growth inhibition in response to 25 µM of drug (on a blue background) and the dose response (GI50) (on a green background). For a discussion of BNCT as a radiotherapeutic modality, a rationalisation is provided here.
All test agents were prepared as stock solutions (20 mM) in dimethyl sulfoxide (DMSO) and stored at −20 °C. Cell lines used in the study included HT29, (colorectal carcinoma); U87, SJ-G2, (glioblastoma); MCF-7, (breast carcinoma); A2780 (ovarian carcinoma); H460 (lung carcinoma); A431 (skin carcinoma); Du145 (prostate carcinoma); BE2-C (neuroblastoma) and MiaPaCa-2 (pancreatic carcinoma); together with the one non-tumour derived normal breast cell line (MCF10A). All cell lines were incubated in a humidified atmosphere 5% CO2 at 37 °C. The cancer cell lines were maintained in Dulbecco’s modified Eagle’s medium (DMEM; Sigma, Australia) supplemented with foetal bovine serum (10%), sodium pyruvate (10 mM), penicillin (100 IUmL^−1), streptomycin (100 µg mL^−1), and L-glutamine (2 mM).
The non-cancer MCF10A cell line was maintained in DMEM/F12 (1:1) cell culture media, 5% heat inactivated horse serum, supplemented with penicillin (50 IUmL^−1), streptomycin (50 µg mL^−1), HEPES (20 mM), L-glutamine (2 mM), epidermal growth factor (20 ng mL^−1), hydrocortisone (500 ng mL^−1), cholera toxin (100 ng mL^−1), and insulin (10 mg mL^−1).
Growth inhibition was determined by plating cells in duplicate in medium (100 µL) at a density of 2500–4000 cells per well in 96-well plates. On day 0 (24 h after plating), when the cells are in logarithmic growth, medium (100 µL) with or without the test agent was added to each well. After a 72-h drug exposure, growth inhibitory effects were evaluated using the MTT (3-(4,5-dimethyltiazol-2-yl)-2,5-diphenyltetrazolium bromide) assay and absorbance read at 540 nm. The percentage growth inhibition was calculated at a fixed concentration of 25 µM, based on the difference between the optical density values on day 0 and those at the end of drug exposure. Each data point is the mean ± the standard error of the mean (SEM) calculated from three replicates, which were performed on separate occasions and separate cell line passages.

[2] = molecular target: T1, α-D-glucosidase (from yeast) (Saccharomyces cerevisiae, UniProt P53341); test: Glycosidase inhibition, Table 6 (Laboratory 1); format: biochemical
T1 construct: purchased Sigma-Aldrich Co
T1 sequence (P53341 whole entry): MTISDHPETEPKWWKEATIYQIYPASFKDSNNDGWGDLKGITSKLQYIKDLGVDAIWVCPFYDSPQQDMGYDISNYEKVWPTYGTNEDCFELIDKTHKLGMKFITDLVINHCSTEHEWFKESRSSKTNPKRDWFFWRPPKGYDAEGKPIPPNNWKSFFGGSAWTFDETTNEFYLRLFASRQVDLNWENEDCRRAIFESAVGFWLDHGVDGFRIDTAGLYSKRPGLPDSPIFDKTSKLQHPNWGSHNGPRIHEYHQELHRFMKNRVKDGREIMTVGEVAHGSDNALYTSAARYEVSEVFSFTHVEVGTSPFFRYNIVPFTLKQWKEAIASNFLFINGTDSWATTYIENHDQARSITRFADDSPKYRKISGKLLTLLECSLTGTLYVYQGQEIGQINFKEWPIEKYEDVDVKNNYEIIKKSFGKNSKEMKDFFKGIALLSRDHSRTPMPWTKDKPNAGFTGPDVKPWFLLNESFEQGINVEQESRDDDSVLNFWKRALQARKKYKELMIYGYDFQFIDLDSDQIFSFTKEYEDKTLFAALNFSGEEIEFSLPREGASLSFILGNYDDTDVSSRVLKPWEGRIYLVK
From the text: (§1) The enzymes α-D-glucosidase (from yeast), β-D-glucosidases (from almond and bovine liver), α-D-galactosidase (from coffee beans), β-D-galactosidase (from bovine liver), α-D-mannosidase (from Jack bean), β-D-mannosidase (from snail), α-L-rhamnosidase (from Penicillium decumbens), α-L-fucosidase (from bovine kidney), trehalase (from porcine kidney), β-D-glucuronidases (from E. coli and bovine liver), amyloglucosidase (from A. niger), para-nitrophenyl glycosides, and various disaccharides were purchased from Sigma-Aldrich Co. (St. Louis, MO, USA).
(§2) Brush border membranes were prepared from the rat small intestine according to the method of Kessler et al., and were assayed at pH 6.8 for rat intestinal maltase using maltose. For rat intestinal maltase, porcine kidney trehalase, and A. niger amyloglucosidase activities, the reaction mixture contained maltose (25 mM) and the appropriate amount of enzyme, and the incubations were performed for 10–30 min at 37 °C. The reaction was stopped by heating at 100 °C for 3 min. After centrifugation (600× g; 10 min), the resulting reaction mixture was added to the Glucose CII-test Wako (Wako Pure Chemical Ind., Osaka, Japan). The absorbance at 505 nm was measured to determine the amount of the released D-glucose. Other glycosidase activities were determined using an appropriate para-nitrophenyl glycoside as substrate at the optimum pH of each enzyme. The reaction mixture contained the substrate (2 mM) and the appropriate amount of enzyme. The reaction was stopped by the addition of Na2CO3 (400 mM). The released para-nitrophenol was measured spectrometrically at 400 nm. All reactions run in methanol.

[3] = system: β-D-glucosidase (bovine liver); test: Glycosidase inhibition, Table 6 (Laboratory 1); format: biochemical
From the text: as §1, §2

[4] = molecular target: T2, α-L-fucosidase (from bovine kidney) (Bos taurus, UniProt Q2KIM0); test: Glycosidase inhibition, Table 6 (Laboratory 1); format: biochemical
T2 construct: purchased Sigma-Aldrich Co
T2 sequence (Q2KIM0 23-468): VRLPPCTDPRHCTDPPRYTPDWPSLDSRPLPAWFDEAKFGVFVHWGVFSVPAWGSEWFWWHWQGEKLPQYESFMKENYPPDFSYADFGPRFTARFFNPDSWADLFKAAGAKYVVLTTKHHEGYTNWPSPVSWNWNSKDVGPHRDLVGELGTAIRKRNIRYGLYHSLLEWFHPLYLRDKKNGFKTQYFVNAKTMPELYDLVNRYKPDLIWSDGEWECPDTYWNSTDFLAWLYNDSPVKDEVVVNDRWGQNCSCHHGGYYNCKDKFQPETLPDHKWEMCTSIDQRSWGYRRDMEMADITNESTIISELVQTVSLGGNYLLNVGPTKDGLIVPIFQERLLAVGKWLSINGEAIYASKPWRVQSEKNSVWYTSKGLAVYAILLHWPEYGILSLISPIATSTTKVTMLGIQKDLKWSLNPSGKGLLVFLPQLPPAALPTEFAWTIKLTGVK
From the text: as §1, §2

[5] = molecular target: T3, α,α-trehalase (porcine kidney) (Sus scrofa, UniProt I3LIR5); test: Glycosidase inhibition, Table 6 (Laboratory 1); format: biochemical
T3 construct: purchased Sigma-Aldrich Co
T3 sequence (I3LIR5 24-583): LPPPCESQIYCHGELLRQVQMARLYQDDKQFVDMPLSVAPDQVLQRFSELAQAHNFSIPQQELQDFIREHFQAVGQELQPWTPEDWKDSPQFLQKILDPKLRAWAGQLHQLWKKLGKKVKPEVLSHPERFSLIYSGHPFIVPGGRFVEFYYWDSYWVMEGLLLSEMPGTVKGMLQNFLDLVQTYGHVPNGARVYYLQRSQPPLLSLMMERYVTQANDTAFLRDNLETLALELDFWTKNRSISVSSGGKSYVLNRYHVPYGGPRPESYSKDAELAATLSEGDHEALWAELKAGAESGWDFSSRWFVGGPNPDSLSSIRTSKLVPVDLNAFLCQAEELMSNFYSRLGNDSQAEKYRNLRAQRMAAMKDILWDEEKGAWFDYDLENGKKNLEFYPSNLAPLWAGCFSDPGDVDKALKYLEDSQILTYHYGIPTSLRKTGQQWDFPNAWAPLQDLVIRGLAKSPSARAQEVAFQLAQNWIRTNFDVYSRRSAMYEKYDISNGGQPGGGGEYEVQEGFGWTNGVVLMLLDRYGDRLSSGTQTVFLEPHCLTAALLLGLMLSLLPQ
From the text: as §1, §2

[6] = molecular target: T4, β-D-glucuronidase (E. coli) (Escherichia coli, UniProt P05804); test: Glycosidase inhibition, Table 6 (Laboratory 1); format: biochemical
T4 construct: purchased Sigma-Aldrich Co
T4 sequence (P05804 whole entry): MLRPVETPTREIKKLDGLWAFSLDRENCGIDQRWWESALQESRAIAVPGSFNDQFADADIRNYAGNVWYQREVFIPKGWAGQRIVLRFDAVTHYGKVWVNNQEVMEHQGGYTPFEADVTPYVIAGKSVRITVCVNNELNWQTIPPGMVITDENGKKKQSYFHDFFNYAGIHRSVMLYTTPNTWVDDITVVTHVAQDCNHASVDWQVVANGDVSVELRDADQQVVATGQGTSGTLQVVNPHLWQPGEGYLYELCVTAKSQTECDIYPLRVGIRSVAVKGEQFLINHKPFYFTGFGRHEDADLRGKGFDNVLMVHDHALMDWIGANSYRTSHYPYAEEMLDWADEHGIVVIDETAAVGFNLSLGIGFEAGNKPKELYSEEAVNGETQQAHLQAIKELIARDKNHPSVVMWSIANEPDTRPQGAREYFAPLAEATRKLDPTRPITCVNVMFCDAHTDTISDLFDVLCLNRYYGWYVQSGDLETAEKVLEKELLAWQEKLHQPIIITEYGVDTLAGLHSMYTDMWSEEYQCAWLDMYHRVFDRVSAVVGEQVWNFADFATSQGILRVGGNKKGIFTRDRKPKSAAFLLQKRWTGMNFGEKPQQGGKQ
From the text: as §1, §2

Molecule	inhibition at 25 µM [1] [%]	inhibition at 100 µM [2] [%]	β-D-Glucosidase Bovine Liver, inhibition % at 100 μM [3]	inhibition at 100 µM [5] [%]	inhibition at 100 µM [6] [%]	inhibition at 1000 µM [4] [%]	inhibition at 1000 µM [2] [%]	inhibition at 1000 µM [5] [%]	β-D-Glucosidase Bovine Liver, inhibition % at 1000 μM [3]	inhibition at 1000 µM [6] [%]	GI50 [1] [µM]	other results
N[C@@H](Cc1ccc(B(O)O)cc1)C(=O)O [BPA, 4-borono-L-phenylalanine, reference compound]	4	0	^c NI ^d (0%)									
CC1(C)O[C@H]2O[C@H]3[C@@H]([C@H]2O1)N(Cc1ccccc1)C[C@H]3O [Compound 3, N-Benzyl-3,6-dideoxy-3,6-imino-1,2-O-isopropylidene-α-D-gulofuranose]	9	4.7	^c NI ^d (31.9%)	0	2.4							inhibition at 100 µM [4]: 0%
OC1O[C@@H]2[C@H]([C@H]1O)N(Cc1ccccc1)C[C@H]2O (stereo partly drawn) [Compound 4, N-Benzyl-3,6-dideoxy-3,6-imino-D-gulofuranose]	14					0.4	0	0	^a NI ^b (16.4%)	7		
OC[C@H](O)[C@@H]1[C@H](O)[C@H](O)CN1Cc1ccccc1 [Compound 5, N-Benzyl-1,4-dideoxy-1,4-imino-L-gulitol]	3	2.9	^c NI ^d (3.3%)	0	0						> 50	
N[C@@H](Cc1ccc(B(O)O)cc1)C(=O)O [^10B-BPA, reference compound]			^c NI ^d (14.2%)									MCF10A Breast (Normal), Percentage (%) Cell Growth Inhibition in response to 25 µM of Drug [1]: * <0%; α-L-Fucosidase Bovine Kidney, inhibition % at 100 μM ([4]; 100 μM): ^c NI ^d (0%); α-D-Glucosidase Yeast, inhibition % at 100 μM ([2]; 100 μM): ^c NI ^d (0%); α,α-Trehalase Porcine Kidney, inhibition % at 100 μM ([5]; 100 μM): ^c NI ^d (0%); β-D-Glucuronidase E. coli, inhibition % at 100 μM ([6]; 100 μM): ^c NI ^d (2.4%)
CC1(C)O[C@H]2O[C@H]3[C@@H]([C@H]2O1)N(Cc1ccc(B2OC(C)(C)C(C)(C)O2)cc1)C[C@H]3O [para 6, N-(4-Methylphenylboronic acid pinacol ester)-3,6-dideoxy-3,6-imino-1,2-O-isopropylidene-α-D-gulofuranose]	14	3.4	^c NI ^d (13%)	0	3.2							inhibition at 100 µM [4]: 0%
OB(O)c1ccc(CN2CC(O)C3OC(O)C(O)C32)cc1 [para 7, N-(4-Methylphenylboronic acid)-3,6-dideoxy-3,6-imino-D-gulofuranose]	4 ± 2					0.8	0	0	^a NI ^b (38.8%)	17.8	> 50	
OC[C@H](O)[C@@H]1[C@H](O)[C@H](O)CN1Cc1ccc(B(O)O)cc1 [para 8, N-(4-Methylphenylboronic acid)-1,4-dideoxy-1,4-imino-L-gulitol]	1					1.7	5.6	0	^a NI ^b (27.1%)	22.9	> 50	
borocaptate sodium [BSH, reference compound]									^a NI ^b (15%)			MCF10A Breast (Normal), Percentage (%) Cell Growth Inhibition in response to 25 µM of Drug [1]: * 8 ± 3%; α-L-Fucosidase Bovine Kidney, inhibition % at 1000 μM ([4]; 1000 μM): ^a NI ^b (0%); α-D-Glucosidase Yeast, inhibition % at 1000 μM ([2]; 1000 μM): ^a NI ^b (6.9%); α,α-Trehalase Porcine Kidney, inhibition % at 1000 μM ([5]; 1000 μM): ^a NI ^b (4.2%); β-D-Glucuronidase E. coli, inhibition % at 1000 μM ([6]; 1000 μM): ^a NI ^b (6%)
